# From US20070167526A1, “Topical mecamylamine formulations for ocular administration and uses thereof” (priority 2005, published 2007)
# Like-named read-outs stand apart in the source and are kept apart here.
# Legend:
# [1] = Distribution of mecamylamine into ocular tissue of rabbits following intravenous administration (Example 9); assay type: in vivo, New Zealand white rabbit; settings: rabbit; for concentration at 1 h / concentration at 2 h / concentration at 4 h / concentration at 6 h / concentration at 0 h / concentration at 0.5 h: male, iv; for concentration at 1 h / concentration at 2 h / concentration at 4 h / concentration at 6 h / concentration at 0 h / concentration at 0.5 h / Concentration of mecamylamine in the retina/choroid, Mean: 15 mg/kg; for Concentration of mecamylamine in the retina/choroid, Mean: hour 6, listed as MEC
# Procedure: Mecamylamine was administered intravenously to male New Zealand white rabbits (approximately 2.5-3 kg (Kralek Frams, Turlock, Calif.)) at a dose of 15 mg/kg (dissolved in sterile 0.9% NaCl for injection) over either over 60 minutes or 6 hours. Drug concentrations were measured as described previously at different time points in the plasma, the vitreous and at 6 hours in the retina-choroid tissue. For both groups, the vitreous(>0.1 mL) was withdrawn at 8 time points, with each animal being sampled no more than twice in total: pre-dose, 5 minutes, 15 minutes, 30 minutes, 1, 2, 4, and 6 hours. At all time points, only two vitreous samples were collected in order to minimize pain and damage to rabbit eyes, in compliance with IACUC guidelines. Plasma samples were also collected at the same 8 time points: pre-dose, 5 minutes, 15 minutes, 30 minutes, 1, 2, 4, and 6 hours, with duplicate samples collected at each time point. At 6 hours, the animals were sacrificed and the vitreous and retina-choroid tissue were collected from all animals. Clinical observations were recorded periodically throughout the study. Biological samples for this study were analyzed using an LC/MS/MS method (see Example 6) with a lower limit of quantitation of 0.5 ng/mL.
# [2] = Toxicokinetics in the 14-day dog study (Example 13); assay type: in vivo; settings: for Cmax: both sexes, beagle, dog, in vivo, topical or ocular
# Procedure: An ophthalmic saline solution formulation containing 3% mecamylamine hydrochloride (HCl) was evaluated for toxicological effects and drug pharmacokinetics in healthy beagle dogs. The drug solution or a matching vehicle control was administered 2, 4 and […] for 14 or 15 consecutive days to both eyes of Beagle dogs.
# Animals were dosed 2, 4 or 6 times a day for 14 consecutive days for males or 15 consecutive days for females. The dose (50 microliters) was administered to the globe of the eye on each dosing occasion. Mortality and clinical observations were evaluated twice daily. Ocular observations were evaluated according to the Draize scoring system twice daily (Draize et al., (1944) J. Pharm. Exp. Ther. 82: 377-390, incorporated by reference herein). All eyes from all animals had ophthalmology examinations using an indirect ophthalmoscope and slit lamp and were evaluated according to McDonald and Shadduck (McDonald & Shadduck (1977) Advances in Modern Toxicology 4: 162 (New York, Wiley), hereby incorporated by reference herein) prior to treatment initiation and 1-2 hours following the final dosing of Groups 1 and 4 on Days 7 and 14. Approximate pupil size was determined for each animal prior to study initiation, at least 30 minutes following the final daily dose on Days 1 and 8 and prior to terminal sacrifice on Days 15/16. Electroretinograms (ERG) were obtained from all animals prior to treatment initiation and on Day 14. Blood samples for evaluation of hematology, coagulation and clinical chemistry parameters were collected prior to treatment initiation and prior to terminal sacrifice on Days 15/16. Selected tissues were harvested at necropsy, selected organs weighed, and selected tissues from all animals were evaluated microscopically.
compound,measurement,setting,value
"CNC1(C)C2CCC(C2)C1(C)C (centres unmarked) [mecamylamine, N-2,3,3-tetramethylbicyclo(2.2.1)heptan-2-amine]",concentration at 1 h,"[1]; New Zealand White, plasma, 15 mg/kg i.v. 1 hr infusion, hour 1, read-out: Concentration of mecamylamine in the plasma, Mean",1820 ng/mL
same,concentration at 2 h,"[1]; New Zealand White, plasma, 15 mg/kg i.v. 1 hr infusion, hour 2, read-out: Concentration of mecamylamine in the plasma, Mean",455 ng/mL
same,concentration at 4 h,"[1]; New Zealand White, plasma, 15 mg/kg i.v. 1 hr infusion, hour 4, read-out: Concentration of mecamylamine in the plasma, Mean",227 ng/mL
same,concentration at 6 h,"[1]; New Zealand White, plasma, 15 mg/kg i.v. 1 hr infusion, hour 6, read-out: Concentration of mecamylamine in the plasma, Mean",102 ng/mL
same,concentration at 1 h,"[1]; New Zealand White, plasma, 15 mg/kg i.v. 6 hr infusion, hour 1, read-out: Concentration of mecamylamine in the plasma, Mean",470 ng/mL
same,concentration at 2 h,"[1]; New Zealand White, plasma, 15 mg/kg i.v. 6 hr infusion, hour 2, read-out: Concentration of mecamylamine in the plasma, Mean",572 ng/mL
same,concentration at 4 h,"[1]; New Zealand White, plasma, 15 mg/kg i.v. 6 hr infusion, hour 4, read-out: Concentration of mecamylamine in the plasma, Mean",717 ng/mL
same,concentration at 6 h,"[1]; New Zealand White, plasma, 15 mg/kg i.v. 6 hr infusion, hour 6, read-out: Concentration of mecamylamine in the plasma, Mean",313 ng/mL
same,concentration at 6 h,"[1]; New Zealand White, retina/choroid, 15 mg/kg i.v. 1 hr infusion, hour 6, read-out: Concentration of mecamylamine in the retina/choroid, Mean",261 ng/mL
same,concentration at 6 h,"[1]; New Zealand White, retina/choroid, 15 mg/kg i.v. 6 hr infusion, hour 6, read-out: Concentration of mecamylamine in the retina/choroid, Mean",1530 ng/mL
same,concentration at 0 h,"[1]; New Zealand white, plasma, 15 mg/kg i.v. 1 hr infusion, hour 0, read-out: Concentration of mecamylamine in the plasma, Mean",48.7 ng/mL
same,concentration at 0.5 h,"[1]; New Zealand white, plasma, 15 mg/kg i.v. 1 hr infusion, hour 0.5, read-out: Concentration of mecamylamine in the plasma, Mean",5330 ng/mL
same,concentration at 0 h,"[1]; New Zealand white, plasma, 15 mg/kg i.v. 6 hr infusion, hour 0, read-out: Concentration of mecamylamine in the plasma, Mean",0 ng/mL
same,concentration at 0.5 h,"[1]; New Zealand white, plasma, 15 mg/kg i.v. 6 hr infusion, hour 0.5, read-out: Concentration of mecamylamine in the plasma, Mean",350 ng/mL
same,concentration at 0 h,"[1]; New Zealand white, vitreous humor, 15 mg/kg i.v. 1 hr infusion, hour 0, read-out: Concentration of mecamylamine in the vitreous humor, Mean",43 ng/mL
same,concentration at 0.5 h,"[1]; New Zealand white, vitreous humor, 15 mg/kg i.v. 1 hr infusion, hour 0.5, read-out: Concentration of mecamylamine in the vitreous humor, Mean",717 ng/mL
same,concentration at 1 h,"[1]; New Zealand white, vitreous humor, 15 mg/kg i.v. 1 hr infusion, hour 1, read-out: Concentration of mecamylamine in the vitreous humor, Mean",1110 ng/mL
same,concentration at 2 h,"[1]; New Zealand white, vitreous humor, 15 mg/kg i.v. 1 hr infusion, hour 2, read-out: Concentration of mecamylamine in the vitreous humor, Mean",900 ng/mL
same,concentration at 4 h,"[1]; New Zealand white, vitreous humor, 15 mg/kg i.v. 1 hr infusion, hour 4, read-out: Concentration of mecamylamine in the vitreous humor, Mean",430 ng/mL
same,concentration at 6 h,"[1]; New Zealand white, vitreous humor, 15 mg/kg i.v. 1 hr infusion, hour 6, read-out: Concentration of mecamylamine in the vitreous humor, Mean",174 ng/mL
same,concentration at 0 h,"[1]; New Zealand white, vitreous humor, 15 mg/kg i.v. 6 hr infusion, hour 0, read-out: Concentration of mecamylamine in the vitreous humor, Mean",5.6 ng/mL
same,concentration at 0.5 h,"[1]; New Zealand white, vitreous humor, 15 mg/kg i.v. 6 hr infusion, hour 0.5, read-out: Concentration of mecamylamine in the vitreous humor, Mean",59.9 ng/mL
same,concentration at 1 h,"[1]; New Zealand white, vitreous humor, 15 mg/kg i.v. 6 hr infusion, hour 1, read-out: Concentration of mecamylamine in the vitreous humor, Mean",138 ng/mL
same,concentration at 2 h,"[1]; New Zealand white, vitreous humor, 15 mg/kg i.v. 6 hr infusion, hour 2, read-out: Concentration of mecamylamine in the vitreous humor, Mean",223 ng/mL
same,concentration at 4 h,"[1]; New Zealand white, vitreous humor, 15 mg/kg i.v. 6 hr infusion, hour 4, read-out: Concentration of mecamylamine in the vitreous humor, Mean",408 ng/mL
same,concentration at 6 h,"[1]; New Zealand white, vitreous humor, 15 mg/kg i.v. 6 hr infusion, hour 6, read-out: Concentration of mecamylamine in the vitreous humor, Mean",458 ng/mL
same,"Concentration of mecamylamine in the retina/choroid, Mean",[1]; 15 mg/kg i.v. 1 hr infusion,260.8 ng/mL
same,"Concentration of mecamylamine in the retina/choroid, Mean",[1]; 15 mg/kg i.v. 6 hr infusion,1534.3 ng/mL
same,peak mean plasma concentration,[1]; 15 mg/kg i.v. over longer period (6 hours),717 ng/mL
same,time of peak plasma levels,[1]; 15 mg/kg i.v. over shorter period,≤ 0.5 h
same,peak mean plasma concentration,[1]; 15 mg/kg i.v. over shorter period (60 minutes),"5,331 ng/mL"
same,highest mean level in the vitreous,"[1]; longer infusion period, seen at 6 hours",458 ng/mL
same,highest mean level in the vitreous,"[1]; shorter infusion period, seen at 1 hour",1110 ng/mL
same,accumulation ratios,"[2]; Beagle dog, Day 13 versus Day 1, any group",≤ 1.14
same,Cmax,"[2]; 3 mg/eye/day, Group 2 (2 doses/eye/day, 3 mg/eye/day), read-out: Cmax, mean",49 ng/mL
same,Cmax,"[2]; 3 mg/eye/day, Group 2, read-out: Cmax, highest overall value",185 ng/mL
same,Cmax,"[2]; 6 mg/eye/day, Group 3 (4 doses/eye/day, 6 mg/eye/day), read-out: Cmax, mean",44 ng/mL
same,Cmax,"[2]; 9 mg/eye/day, Group 4 (6 doses/eye/day, 9 mg/eye/day), read-out: Cmax, mean",64 ng/mL
